Reference: US12678419B2, “Compounds” (Sitryx Therapeutics Limited, priority 2020, dated 2026)
pIC50: −log10 of the molar value. Where “and” joins values, the source holds several entries; their conditions need not be identical. Equal entries are not always repeated.

What was measured:
[1] = system: IL-6 cytokine output from THP-1s; experiment: THP-1 AlphaLISA IL-6 cytokine assay; type: cell-based; conditions: Homo sapiens, LPS then nigericin, Table 1
Procedure: The cytokine inhibition profiles of compounds of formula (I) were determined in a differentiated THP-1 cell assay. All assays were performed in RPMI-1640 growth medium (Gibco), supplemented with 10% fetal bovine serum (FBS; Gibco), 1% penicillin-streptomycin and 1% sodium pyruvate unless specified otherwise. The IL-1β and IL-6 cytokine inhibition assays were each run in a background of differentiated THP-1 cells as described below. All reagents described were from Sigma-Aldrich unless specified otherwise. Compounds were prepared as 10 mM DMSO stocks.
THP-1 cells were expanded as a suspension up to 80% confluence in appropriate growth medium. Cells were harvested, suspended, and treated with an appropriate concentration of phorbol 12-myristate 13-acetate (PMA) over a 72 hr period (37° C./5% CO2).
Following 72 hrs of THP-1 cell incubation, cellular medium was removed and replaced with fresh growth media containing 1% of FBS. Working concentrations of compounds were prepared separately in 10% FBS treated growth medium and pre-incubated with the cells for 30 minutes (37° C./5% CO2). Following the 30 minute compound pre-incubation, THP-1s were treated with an appropriate concentration of LPS and the THP-1s were subsequently incubated for a 24 hr period (37° C./5% CO2). An appropriate final concentration of Nigericin was then dispensed into the THP-1 plates and incubated for 1 hour (37° C./5% CO2) before THP-1 supernatants were harvested and collected in separate polypropylene 96-well holding plates.
Reagents from each of the IL-1β and IL-6 commercial kits (Perkin Elmer) were prepared and run according to the manufacturer's instructions. Subsequently, fluorescence signal detection in a microplate reader was measured (EnVision® Multilabel Reader, Perkin Elmer).
Percentage inhibition was calculated per cytokine by normalising the sample data to the high and low controls used within each plate (+/− LPS respectively). Percentage inhibition was then plotted against compound concentration and the 50% inhibitory concentration (IC50) was determined from the resultant concentration-response curve.

[2] = system: IL-1β cytokine output from THP-1s; experiment: THP-1 AlphaLISA IL-1β cytokine assay; type: cell-based; conditions: Homo sapiens, LPS then nigericin, Table 1
How it was run: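 PMA-differentiated THP-1 cells (72 h) pre-incubated with compound for 30 min, LPS-stimulated for 24 h, then nigericin for 1 h, all at 37° C. IL-1β and IL-6 in supernatants measured by AlphaLISA. IC50 from concentration-response of % inhibition normalized to ±LPS controls.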

[3] = Hepatocyte stability assay, human; type: in vitro ADME; conditions: human, cryopreserved hepatocytes, 10 μM compound, read-out: T½
How it was run: (§1)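 Cryopreserved hepatocytes (viability >70%) at 0.5×10^6 cells/mL in Leibovitz buffer, compound 10 μM (0.1% DMSO) at 37° C. Samples at 0, 5, 10, 20, 40, 60 min quenched in acetonitrile and analysed by LC-MS/MS, with buffer-only incubations as control. Half-life and Clint (μL min^−1 10^−6 cells) from ln % remaining versus time.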

human hepatocytes = experiment: Hepatocyte stability assay, human; type: in vitro ADME; conditions: 10 μM compound
How it was run: as §1

[4] = Hepatocyte stability assay, mouse; type: in vitro ADME; conditions: mouse, cryopreserved hepatocytes, 10 μM compound, read-out: T½
How it was run: as §1

mouse hepatocytes = experiment: Hepatocyte stability assay, mouse; type: in vitro ADME; conditions: 10 μM compound
How it was run: as §1

[5] = system: NRF2 (nuclear factor erythroid 2-related factor 2); experiment: NRF2 +/-GSH activation assay (DiscoverX PathHunter NRF2 translocation kit, U2OS cells); type: cell-based; conditions: for Emax (%) +GSH / Emax (%) −GSH: normalised to dimethyl fumarate high control
[6] = THP-1, differentiated THP-1 cells

Compound | pIC50 [1, 6] | pIC50 [2, 6] | half-life at 10 μM [3] [min] | Clint (μL min^−1 10^−6 cells) (human hepatocytes) | half-life at 10 μM [4] [min] | Clint (μL min^−1 10^−6 cells) (mouse hepatocytes) | EC50 ([5]; +GSH) | EC50 ([5]; −GSH) | Emax (%) +GSH ([5]; +GSH) | Emax (%) −GSH ([5]; −GSH) | pIC50 ([1]; differentiated THP-1 cells) | pIC50 ([2]; differentiated THP-1 cells)
C=C(CC(=O)OC1(C)Cc2ccc(Cl)cc2C1)C(=O)OCC(=O)O (centres unmarked) [Example 7, 2-((4-((5-chloro-2-methyl-2,3-dihydro-1H-inden-2-yl)oxy)-2-methylene-4-oxobutanoyl)oxy)acetic acid] | – | – | 86 | 17 | 10 | 142 | 22.3 µM | 14.5 µM | 135% | 155% | 5.09 | < 4.50
C=C(CC(=O)OC1C(C)(C)c2cc(F)c(F)cc2C1(C)C)C(=O)OCC(=O)O [Example 26, 2-((4-((5,6-difluoro-1,1,3,3-tetramethyl-2,3-dihydro-1H-inden-2-yl)oxy)-2-methylene-4-oxobutanoyl)oxy)acetic acid] | 5.52 | 5.10 | 166 | 9 | < 3 | >460 | 7.7 µM | 4.1 µM | 145% | 216% | – | –

Second part, led by results:

pIC50 [1, 6] | pIC50 [2, 6] | half-life at 10 μM [3] [min] | Clint (μL min^−1 10^−6 cells) (human hepatocytes) | half-life at 10 μM [4] [min] | Clint (μL min^−1 10^−6 cells) (mouse hepatocytes) | EC50 ([5]; +GSH) | EC50 ([5]; −GSH) | Compound | Emax (%) +GSH ([5]; +GSH) | Emax (%) −GSH ([5]; −GSH) | pIC50 ([1]; differentiated THP-1 cells) | pIC50 ([2]; differentiated THP-1 cells)
5.07 | 4.92 | 169 | 9 | 16 | 97 | 35.1 µM and 37.5 µM | 12.2 µM and 22.2 µM | C=C(CC(=O)OC1CCc2cc(C(F)(F)F)ccc21)C(=O)OCC(=O)O (single isomer, unassigned; enantiomer 1) [Example 27, 2-((2-methylene-4-oxo-4-((5-(trifluoromethyl)-2,3-dihydro-1H-inden-1-yl)oxy)butanoyl)oxy)acetic acid (Enantiomer 1)] | 139% and 136% | 157% and 201% | – | –
5.49 | 5.10 | 35 | 37 | 3 | 483 | 4 µM | 5.6 µM | C=C(CC(=O)OC1(C)Cc2cc(Cl)c(Cl)cc2C1)C(=O)OCC(=O)O [Example 21, 2-((4-((5,6-dichloro-2-methyl-2,3-dihydro-1H-inden-2-yl)oxy)-2-methylene-4-oxobutanoyl)oxy)acetic acid] | 55% | 151% | – | –
4.99 | 4.53 | 449 | 3 | 41 | 46 | 34.6 µM | 25.6 µM | C=C(CC(=O)OC1Cc2ccc(Cl)cc2C1)C(=O)OCC(=O)O (centres unmarked) [Example 1, 2-((4-((5-chloro-2,3-dihydro-1H-inden-2-yl)oxy)-2-methylene-4-oxobutanoyl)oxy)acetic acid] | 125% | 139% | – | –
